Measurements taken from PubChem BioAssay AID256 (DTP/NCI, 2004).
Where “and” joins values, the source holds several entries; their conditions need not be identical. Equal entries are not always repeated. Toxic doses and inconclusive results are not listed. Rule for the calls: active = survival T/C of 150% or more; inactive = T/C below 125% in these data. Residues, ends and D or L forms follow the SMILES beside them. *: point of attachment. Cbz = O=C(OCc1ccccc1)*; OBn = c1ccc(CO*)cc1

Tested on: CD2F1 mice, L1210 leukemia ip, survival T/C
Experiment: NCI In Vivo Anticancer Drug Screen. Data for tumor model L1210 Leukemia (intraperitoneal) in CD2F1 (CDF1) mice
Settings: higher = longer survival
Method in brief: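 Activity against a transplanted murine tumor was judged by comparing the compound group with a vehicle group. The outcome in the treated animals was divided by that in the controls.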

[1] = endpoint: mean survival time, dose: 100.0 mg/kg/injection, schedule: Q04DX002 (ip), vehicle: saline with Tween-80
[2] = endpoint: mean survival time, dose: 200.0 mg/kg/injection, schedule: Q04DX002 (ip), vehicle: saline with Tween-80
[3] = endpoint: mean survival time, dose: 100.0 mg/kg/injection, schedule: Q04DX003 (ip), vehicle: saline with Tween-80
[4] = endpoint: mean survival time, dose: 200.0 mg/kg/injection, schedule: Q04DX003 (ip), vehicle: saline with Tween-80
[5] = endpoint: mean survival time, dose: 400.0 mg/kg/injection, schedule: Q04DX003 (ip), vehicle: saline with Tween-80
[6] = endpoint: mean survival time, dose: 100.0 mg/kg/injection, schedule: Q04DX002 (ip), vehicle: saline
[7] = endpoint: mean survival time, dose: 50.0 mg/kg/injection, schedule: Q01DX009 (ip), vehicle: saline with Tween-80
[8] = endpoint: mean survival time, dose: 100.0 mg/kg/injection, schedule: Q01DX009 (ip), vehicle: saline with Tween-80
[9] = endpoint: mean survival time, dose: 200.0 mg/kg/injection, schedule: Q01DX009 (ip), vehicle: saline with Tween-80
[10] = endpoint: mean survival time, dose: 10.0 mg/kg/injection, schedule: Q01DX009 (ip), vehicle: saline with Tween-80
[11] = endpoint: mean survival time, dose: 20.0 mg/kg/injection, schedule: Q01DX009 (ip), vehicle: saline with Tween-80
[12] = endpoint: mean survival time, dose: 400.0 mg/kg/injection, schedule: Q01DX009 (ip), vehicle: saline with Tween-80

Measured: T/C

CC1(Br)CCOC1=O (configuration not stated)
inactive: endpoint: mean survival time, dose: 50.0 mg/kg/injection, schedule: Q04DX002 (ip), vehicle: saline with Tween-80 98 % of control | [1] 98 % of control | [2] 111 % of control

Nc1ncnc(N)c1NC(=O)c1ccc(CCCCc2ccccc2)cc1
inactive: [3] 104 % of control | [4] 96 % of control | [5] 92 % of control

O.[Co].[NH2-].[NH2-].[NH2-].[NH2-].[NH2-]
inactive: endpoint: mean survival time, dose: 25.0 mg/kg/injection, schedule: Q04DX002 (ip), vehicle: saline with Tween-80 93 % of control | [1] 90 % of control | [6] 98 % of control

Cc1ccc(NC(=O)N2CCCCC2C)cc1[N+](=O)[O-] (configuration not stated)
inactive: [7] 102 % of control | [8] 94 % of control | [9] 102 % of control

COc1cc(-c2[o+]c3cc(O)cc(O)c3cc2OC2OC(CO)C(O)C(O)C2O)cc(OC)c1O (configuration not stated)
inactive: endpoint: mean survival time, dose: 25.0 mg/kg/injection, schedule: Q01DX009 (ip), vehicle: saline with Tween-80 94 % of control | [7] 96 % of control | [8] 96 % of control

CCOC(=O)C(C)Oc1ccc(Cl)cc1 (configuration not stated)
inactive: endpoint: mean survival time, dose: 25.0 mg/kg/injection, schedule: Q01DX009 (ip), vehicle: water 107 % of control | endpoint: mean survival time, dose: 50.0 mg/kg/injection, schedule: Q01DX009 (ip), vehicle: water 106 % of control | endpoint: mean survival time, dose: 100.0 mg/kg/injection, schedule: Q01DX009 (ip), vehicle: water 106 % of control | endpoint: mean survival time, dose: 200.0 mg/kg/injection, schedule: Q01DX009 (ip), vehicle: water 107 % of control | endpoint: mean survival time, dose: 400.0 mg/kg/injection, schedule: Q01DX009 (ip), vehicle: water 109 % of control

COc1ccc(COC(=O)Nc2ccc(Cl)cc2)cc1OC
inactive: [1] 96 % of control | [2] 100 % of control | endpoint: mean survival time, dose: 400.0 mg/kg/injection, schedule: Q04DX002 (ip), vehicle: saline with Tween-80 112 % of control

O=NO.O=NO.[NH-]C1CCCCC1[NH-].[Pd+2] (configuration not stated)
inactive: endpoint: mean survival time, dose: 3.13 mg/kg/injection, schedule: Q04DX003 (ip), vehicle: dextrose 92 % of control | endpoint: mean survival time, dose: 6.25 mg/kg/injection, schedule: Q04DX003 (ip), vehicle: dextrose 93 % of control | endpoint: mean survival time, dose: 12.5 mg/kg/injection, schedule: Q01DX001 (ip), vehicle: dextrose 95 % of control | endpoint: mean survival time, dose: 12.5 mg/kg/injection, schedule: Q04DX003 (ip), vehicle: dextrose 98 % of control | endpoint: mean survival time, dose: 25.0 mg/kg/injection, schedule: Q01DX001 (ip), vehicle: dextrose 94 % of control | endpoint: mean survival time, dose: 50.0 mg/kg/injection, schedule: Q01DX001 (ip), vehicle: dextrose 91 % of control | endpoint: mean survival time, dose: 50.0 mg/kg/injection, schedule: Q04DX003 (ip), vehicle: dextrose 95 % of control | endpoint: mean survival time, dose: 100.0 mg/kg/injection, schedule: Q01DX001 (ip), vehicle: dextrose 109 % of control | endpoint: mean survival time, dose: 100.0 mg/kg/injection, schedule: Q04DX003 (ip), vehicle: dextrose 100 % of control

COc1cc(Cl)ccc1NC(=O)Nc1ccc(S(N)(=O)=O)cc1
inactive: [7] 91 % of control | [8] 100 % of control | [9] 91 % of control

Nc1ccc(NC(=O)Nc2ccccc2)cc1
inactive: endpoint: mean survival time, dose: 100.0 mg/kg/injection, schedule: Q01DX001 (ip), vehicle: Klucel (hydroxypropylcellulose) (HPC) 88 % of control | endpoint: mean survival time, dose: 200.0 mg/kg/injection, schedule: Q01DX001 (ip), vehicle: Klucel (hydroxypropylcellulose) (HPC) 96 % of control | endpoint: mean survival time, dose: 400.0 mg/kg/injection, schedule: Q01DX001 (ip), vehicle: Klucel (hydroxypropylcellulose) (HPC) 96 % of control

CC(C)CCC(C)C1CCC2C3CC([N+](=O)[O-])=C4CC(OC(=O)c5ccccc5)CCC4(C)C3CCC12C (configuration not stated)
inactive: [3] 102 % of control | [4] 92 % of control | [5] 92 % of control

c1ccc(OCCCNc2ccccn2)cc1
inactive: endpoint: mean survival time, dose: 25.0 mg/kg/injection, schedule: Q04DX003 (ip), vehicle: saline with Tween-80 92 % of control | endpoint: mean survival time, dose: 50.0 mg/kg/injection, schedule: Q04DX003 (ip), vehicle: saline with Tween-80 103 % of control | [3] 92 % of control and 97 % of control

O=C1OC(=O)C2C3C=CC(O3)C12 (configuration not stated)
inactive: [10] 100 % of control | endpoint: mean survival time, dose: 12.5 mg/kg/injection, schedule: Q01DX009 (ip), vehicle: saline 105 % of control | endpoint: mean survival time, dose: 12.5 mg/kg/injection, schedule: Q04DX003 (ip), vehicle: saline 95 % of control | [11] 98 % of control | endpoint: mean survival time, dose: 25.0 mg/kg/injection, schedule: Q01DX009 (ip), vehicle: saline 94 % of control | endpoint: mean survival time, dose: 25.0 mg/kg/injection, schedule: Q04DX002 (ip), vehicle: saline 104 % of control | endpoint: mean survival time, dose: 25.0 mg/kg/injection, schedule: Q04DX003 (ip), vehicle: saline 98 % of control | endpoint: mean survival time, dose: 50.0 mg/kg/injection, schedule: Q01DX009 (ip), vehicle: saline 102 % of control | endpoint: mean survival time, dose: 50.0 mg/kg/injection, schedule: Q04DX002 (ip), vehicle: saline 104 % of control | endpoint: mean survival time, dose: 50.0 mg/kg/injection, schedule: Q04DX003 (ip), vehicle: saline 95 % of control | [6] 97 % of control and 98 % of control

O=C(CNC(=O)OCc1ccccc1)NCC(=O)OCc1ccccc1 (Cbz-Gly-Gly-OBn)
inactive: [8] 93 % of control | [3] 96 % of control | [9] 92 % of control | [4] 93 % of control | [12] 89 % of control | [5] 93 % of control

O/N=C1/CCCC/C1=C/c1ccc(Cl)cc1
inactive: endpoint: mean survival time, dose: 100.0 mg/kg/injection, schedule: Q04DX003 (ip), vehicle: Klucel (hydroxypropylcellulose) (HPC) 98 % of control | endpoint: mean survival time, dose: 200.0 mg/kg/injection, schedule: Q04DX003 (ip), vehicle: Klucel (hydroxypropylcellulose) (HPC) 100 % of control | endpoint: mean survival time, dose: 400.0 mg/kg/injection, schedule: Q04DX003 (ip), vehicle: Klucel (hydroxypropylcellulose) (HPC) 100 % of control

COc1c(C)ccc([N+](=O)[O-])c1OC
inactive: [8] 97 % of control | [9] 98 % of control | [12] 98 % of control

CCCCCCCCCCSS(=O)(=O)O
inactive: endpoint: mean survival time, dose: 25.0 mg/kg/injection, schedule: Q01DX001 (ip), vehicle: other 105 % of control | endpoint: mean survival time, dose: 50.0 mg/kg/injection, schedule: Q01DX001 (ip), vehicle: other 96 % of control | endpoint: mean survival time, dose: 100.0 mg/kg/injection, schedule: Q01DX001 (ip), vehicle: other 96 % of control

COc1ccccc1OC(=O)Nc1ccccc1F
inactive: [3] 101 % of control | [4] 97 % of control | [5] 101 % of control

Cc1c(O)/c(=C\O)c2nc3c(=O)ccc(C(=O)NCCN(C)C)c3[nH]c2c1=O
inactive: endpoint: median survival time, dose: 12.5 mg/kg/injection, schedule: Q01DX005 (ip), vehicle: water 103 % of control and 110 % of control | endpoint: median survival time, dose: 18.0 mg/kg/injection, schedule: Q01DX005 (ip), vehicle: water 115 % of control | endpoint: median survival time, dose: 25.0 mg/kg/injection, schedule: Q01DX005 (ip), vehicle: water 114 % of control and 105 % of control

Cc1cc(C)c(C)c(C(=O)C(=O)c2ccccc2)c1
inactive: endpoint: mean survival time, dose: 75.0 mg/kg/injection, schedule: Q01DX001 (ip), vehicle: other 93 % of control | endpoint: mean survival time, dose: 150.0 mg/kg/injection, schedule: Q01DX001 (ip), vehicle: other 94 % of control | endpoint: mean survival time, dose: 300.0 mg/kg/injection, schedule: Q01DX001 (ip), vehicle: other 100 % of control

CC(C)=CCC/C(C)=C/CNCCc1c[nH]c2ccccc12
inactive: endpoint: mean survival time, dose: 5.0 mg/kg/injection, schedule: Q01DX009 (ip), vehicle: saline with Tween-80 102 % of control | [10] 98 % of control | [11] 100 % of control

C#CCOCC1CO1 (configuration not stated)
inactive: endpoint: mean survival time, dose: 75.0 mg/kg/injection, schedule: Q01DX001 (ip), vehicle: saline 95 % of control | endpoint: mean survival time, dose: 150.0 mg/kg/injection, schedule: Q01DX001 (ip), vehicle: saline 87 % of control

O=C1C2C3CCC(C3)C2N1Cc1ccccc1 (configuration not stated)
inactive: endpoint: mean survival time, dose: 100.0 mg/kg/injection, schedule: Q04DX002 (ip), vehicle: other 93 % of control | endpoint: mean survival time, dose: 200.0 mg/kg/injection, schedule: Q04DX002 (ip), vehicle: other 96 % of control | endpoint: mean survival time, dose: 400.0 mg/kg/injection, schedule: Q04DX002 (ip), vehicle: other 96 % of control
